The results in this text go back to article PMC3427421 (2012).

This assay concerns the target NR2A-containing NMDA receptor (NR2A subunit) (Rattus norvegicus, UniProt Q00959). In kind it is cell-based.

Chain of NR2A-containing NMDA receptor (NR2A subunit) (Q00959 23-1464, other chains not shown): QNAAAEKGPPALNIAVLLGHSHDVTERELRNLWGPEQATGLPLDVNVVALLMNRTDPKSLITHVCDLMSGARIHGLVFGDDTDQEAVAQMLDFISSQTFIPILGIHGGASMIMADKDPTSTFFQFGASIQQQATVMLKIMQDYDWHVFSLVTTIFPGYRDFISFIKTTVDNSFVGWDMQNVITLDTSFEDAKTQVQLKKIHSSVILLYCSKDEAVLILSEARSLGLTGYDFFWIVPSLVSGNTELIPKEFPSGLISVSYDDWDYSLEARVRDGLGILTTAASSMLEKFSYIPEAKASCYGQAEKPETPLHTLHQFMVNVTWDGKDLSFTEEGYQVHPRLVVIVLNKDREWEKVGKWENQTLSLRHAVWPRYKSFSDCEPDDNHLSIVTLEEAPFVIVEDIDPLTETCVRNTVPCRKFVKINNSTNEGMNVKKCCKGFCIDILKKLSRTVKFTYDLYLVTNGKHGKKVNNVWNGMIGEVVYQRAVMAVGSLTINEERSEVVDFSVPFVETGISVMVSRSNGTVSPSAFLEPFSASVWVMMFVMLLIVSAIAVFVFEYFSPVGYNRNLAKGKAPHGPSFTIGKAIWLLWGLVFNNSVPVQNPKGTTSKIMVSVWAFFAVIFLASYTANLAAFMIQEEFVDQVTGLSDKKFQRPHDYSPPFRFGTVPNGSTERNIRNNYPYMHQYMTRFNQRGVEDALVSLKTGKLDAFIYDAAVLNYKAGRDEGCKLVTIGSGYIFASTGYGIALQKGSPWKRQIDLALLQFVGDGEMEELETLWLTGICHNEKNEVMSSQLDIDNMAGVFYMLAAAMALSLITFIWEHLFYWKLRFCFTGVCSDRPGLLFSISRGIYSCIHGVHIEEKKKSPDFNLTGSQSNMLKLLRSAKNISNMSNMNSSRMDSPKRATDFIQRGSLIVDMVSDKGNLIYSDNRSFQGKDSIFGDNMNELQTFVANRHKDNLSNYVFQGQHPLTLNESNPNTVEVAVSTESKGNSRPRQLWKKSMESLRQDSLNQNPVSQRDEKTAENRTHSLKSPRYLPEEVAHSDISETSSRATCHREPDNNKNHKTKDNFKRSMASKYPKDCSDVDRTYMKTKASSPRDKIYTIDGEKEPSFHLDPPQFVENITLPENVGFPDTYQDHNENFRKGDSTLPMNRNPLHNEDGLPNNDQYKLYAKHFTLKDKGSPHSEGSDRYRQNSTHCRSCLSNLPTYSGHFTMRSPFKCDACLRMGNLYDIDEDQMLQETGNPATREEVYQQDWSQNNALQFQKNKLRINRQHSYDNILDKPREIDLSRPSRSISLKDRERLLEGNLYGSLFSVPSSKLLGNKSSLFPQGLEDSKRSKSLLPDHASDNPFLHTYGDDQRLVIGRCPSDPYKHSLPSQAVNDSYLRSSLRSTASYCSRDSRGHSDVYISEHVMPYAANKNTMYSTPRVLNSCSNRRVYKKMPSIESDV

As for `C[C@H](NC(c1cccc2[nH]c(=O)c(=O)[nH]c12)P(=O)(O)O)c1ccc(Br)cc1` (stereo partly drawn) [PEAQX, ({[(1S)-1-(4-bromophenyl)ethyl]amino}-(2,3-dioxo-1,4-dihydroquinoxalin-5-yl)methyl)phosphonic acid], half-maximal inhibition (IC50) required 130 ± 40 nM.
